Data from publication PMC7802075 (ACS Infectious Diseases, 2020).

Biological target: T1, LmjIPCS (inositol phosphorylceramide synthase from L. major) (Leishmania major, UniProt E9AFX2)
T1 sequence (E9AFX2 1-338): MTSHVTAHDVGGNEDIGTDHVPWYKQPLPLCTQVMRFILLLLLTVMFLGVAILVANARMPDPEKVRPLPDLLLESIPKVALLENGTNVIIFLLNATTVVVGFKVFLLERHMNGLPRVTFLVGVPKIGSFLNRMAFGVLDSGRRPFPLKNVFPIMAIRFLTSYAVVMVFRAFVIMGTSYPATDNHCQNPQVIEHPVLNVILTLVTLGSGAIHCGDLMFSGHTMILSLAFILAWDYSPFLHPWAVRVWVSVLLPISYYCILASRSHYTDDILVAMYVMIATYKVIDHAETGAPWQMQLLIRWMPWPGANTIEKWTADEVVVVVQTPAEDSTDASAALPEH
Assay: biochemical
Assay type: biochemical
Design: inhibition: dose or concentration left out as unconfirmed
Conditions: not given

Compound | 20mM inhibition LmjIPCS
C=C[C@H]1C[N@@]2CC[C@H]1C[C@@H]2[C@@H](O)c1ccnc2ccc(OC)cc12 [QUINIDINE] | 55%
Cc1onc(-c2ccccc2Cl)c1C(=O)N[C@@H]1C(=O)N2[C@@H]1SC(C)(C)[C@@H]2C(=O)O [CLOXACILLIN] | 45%
CC(C)=CC1C(C(=O)OCc2cccc(Oc3ccccc3)c2)C1(C)C (centres unmarked) [PHENOTHRIN] | 39%
CC(C)OC(=O)C(C)(C)Oc1ccc(C(=O)c2ccc(Cl)cc2)cc1 [FENOFIBRATE] | 58%
Cc1cc(O)cc(C)c1Cl [CHLOROXYLENOL] | 53%
CCCC(C)(COC(N)=O)COC(=O)NC(C)C (centres unmarked) [CARISOPRODOL] | 52%

Same assay, conditions: NINDS set screen, compound at 20mM (so in the source)

Compound | 20mM inhibition LmjIPCS
N.N.[Cl][Pt][Cl] [CISPLATIN] | 21%

Same assay, conditions: NINDS set screen, single concentration 20mM as printed

Compound | 20mM inhibition LmjIPCS
CNC[C@H](O)c1ccc(O)c(O)c1.O=C(O)C(O)C(O)C(=O)O [ADRENALINE BITARTRATE] | -5.34%

Same assay, conditions: NINDS set screen, single concentration printed as 20mM

Compound | 20mM inhibition LmjIPCS
O=C1C[C@@H](c2ccccc2)Oc2cc(O)cc(O)c21 [PINOCEMBRIN] | 35%
NS(=O)(=O)c1cc2c(cc1Cl)N=C(CSCc1ccccc1)NS2(=O)=O [BENZTHIAZIDE] | 36%

Same assay, conditions: NINDS set screen; read-out: inhibition LmjIPCS

Compound | inhibition
CN(C)CCC(c1ccccc1)c1ccccn1 (centres unmarked) [PHENIRAMINE] | -1%
OC(CCN1CCCCC1)(c1ccccc1)c1ccccc1 [PRIDINOL] | 27%
O=[N+]([O-])c1cccc2cn[nH]c12 [7-NITROINDAZOLE] | 24%
O=C1c2ccc(O)c(O)c2C(=O)c2c(O)ccc(O)c21 [QUINALIZARIN] | -2.7%
CC12CCC(CC1)C(C)(C)O2 [CINEOLE] | -13%
CC(=O)/N=c1/sc(S(N)(=O)=O)nn1C [METHAZOLAMIDE] | -4.59%
Nc1ccc(S(=O)(=O)NC(=O)c2ccccc2)cc1 [SULFABENZAMIDE] | -6%

Same assay, conditions: read-out: 20mM inhibition LmjIPCS

Compound | inhibition at 20000 µM
CCOC(N)=O | 11%
CCCCCC1C(=O)CCC1CC(=O)O (centres unmarked) [DIHYDROJASMONIC ACID] | 20%
O=C1CCCN1CC#CCN1CCCC1 [OXOTREMORINE] | 4%
CCCCCC(C)N (centres unmarked) [TUAMINOHEPTANE] | 26%
C[N+](C)(C)CCOP(=O)(O)OP(=O)([O-])OC[C@H]1O[C@@H](n2ccc(N)nc2=O)[C@H](O)[C@@H]1O [CITICOLINE] | 0.108%
CCOC(=O)N1CCC(=C2c3ccc(Cl)cc3CCc3cccnc32)CC1 [LORATADINE] | 21%
CN[C@@H]1[C@@H](O)[C@@H](O[C@@H]2[C@@H](O)[C@H](O[C@H]3OC(CN)=CC[C@H]3N)[C@@H](N)C[C@H]2N)OC[C@]1(C)O [SISOMICIN] | 19%
NC(N)=Nc1nc(CSCCC(N)=NS(N)(=O)=O)cs1 [FAMOTIDINE] | 14%
C[C@H]1O[C@@H](O[C@H]2[C@@H](O)C[C@H](O[C@H]3[C@@H](O)C[C@H](O[C@H]4CC[C@@]5(C)[C@H](CC[C@@H]6[C@@H]5CC[C@]5(C)[C@@H](C7=CC(=O)OC7)CC[C@]65O)C4)O[C@@H]3C)O[C@@H]2C)C[C@H](O)[C@@H]1O [DIGITOXIN] | 5.28%
CN/C(=N/CCSCc1nc[nH]c1C)NC#N [CIMETIDINE] | -0.386%
CO/N=C1\CN(c2nc3c(cc2F)c(=O)c(C(=O)O)cn3C2CC2)CC1CN (centres unmarked) [GEMIFLOXACIN] | 25%
Nc1nc(/C(=C/CC(=O)O)C(=O)N[C@@H]2C(=O)N3C(C(=O)O)=CCS[C@H]23)cs1 [CEFTIBUTEN] | 18%
COc1ccc(OC)c(C(O)CNC(=O)CN)c1 (centres unmarked) [MIDODRINE] | 13%
CC[C@H]1OC(=O)C[C@@H](O)[C@H](C)[C@@H](O[C@@H]2O[C@H](C)[C@@H](O[C@H]3C[C@@](C)(O)[C@@H](O)[C@H](C)O3)[C@H](N(C)C)[C@H]2O)[C@@H](CC=O)C[C@@H](C)C(=O)/C=C/C(C)=C/[C@@H]1CO[C@@H]1O[C@H](C)[C@@H](O)[C@@H](OC)[C@H]1OC [TYLOSIN] | 5%
CC1CCC(NC(=O)N(CCCl)N=O)CC1 (centres unmarked) [SEMUSTINE] | 15%
O=c1c(O)c(-c2ccc(O)c(O)c2)oc2cc(O)cc(O)c12 [QUERCETIN] | 3.45%
C=C(C)[C@@H]1CC=C(C(=O)O)CC1 [PERILLIC ACID (-)] | 12%
COc1ccc(C(CN(C)C)C2(O)CCCCC2)cc1 (centres unmarked) [VENLAFAXINE] | 26%
CO[C@@H]1[C@@H](OC(N)=O)[C@@H](O)[C@H](Oc2ccc3c(O)c(NC(=O)c4ccc(O)c(CC=C(C)C)c4)c(=O)oc3c2C)OC1(C)C [NOVOBIOCIN] | 16%
O=S(=O)(O)CCS [MESNA] | -0.783%
C[C@H]1CC[C@]2(NC1)O[C@H]1C[C@H]3[C@@H]4CC[C@H]5C[C@@H](O[C@@H]6O[C@H](CO)[C@H](O[C@@H]7O[C@H](CO)[C@@H](O)[C@H](O[C@@H]8OC[C@@H](O)[C@H](O)[C@H]8O)[C@H]7O[C@@H]7O[C@H](CO)[C@@H](O)[C@H](O)[C@H]7O)[C@H](O)[C@H]6O)CC[C@]5(C)[C@H]4CC[C@]3(C)[C@H]1[C@@H]2C [TOMATINE] | 12%
NNCCc1ccccc1 [PHENELZINE] | 27%
C[C@]12CC[C@@H]3c4ccc(O)cc4CC[C@H]3[C@@H]1CC[C@@H]2O [ESTRADIOL] | -5.65%
c1ccc(CC2=NCCN2)cc1 [TOLAZOLINE] | 2.77%
NNc1nncc2ccccc12 [HYDRALAZINE] | 15%
Cc1ccc(C)c(OCCCC(C)(C)C(=O)O)c1 [GEMFIBROZIL] | -1.79%
C1CNCCN1 [PIPERAZINE] | 5.42%
CN1[C@@H]2C[C@@H](OC(=O)[C@H](CO)c3ccccc3)C[C@H]1[C@@H]1O[C@@H]12 [SCOPOLAMINE] | -2.65%
CC1(C)[C@@H](O)CC[C@]2(C)[C@H]3C(=O)C=C4[C@H]5C[C@@](C)(C(=O)O)CC[C@]5(C)CC[C@@]4(C)[C@]3(C)CC[C@@H]12 | 7%

Same assay, conditions: read-out: inhibition LmjIPCS

Compound | inhibition
Cc1cc2nc3c(=O)[nH]c(=O)nc-3n(C[C@H](O)[C@H](O)[C@H](O)CO)c2cc1C [RIBOFLAVIN] | 2.26%
O=c1[nH]c2cc(Cl)c(Cl)cc2[nH]c1=O [2,3-DIHYDROXY-6,7-DICHLOROQUINOXALINE] | 4%
COc1ccc([C@@H]2Sc3ccccc3N(CCN(C)C)C(=O)[C@@H]2OC(C)=O)cc1 [DILTIAZEM] | 14%
NCCCCC(=O)O [5-AMINOPENTANOIC ACID] | -2.68%
Nc1nc2nc[nH]c2c(=S)[nH]1 [THIOGUANINE] | 6%
CN1C(C(=O)Nc2ccccn2)=C(O)c2sccc2S1(=O)=O [TENOXICAM] | 7.55%
CC1COc2c(N3CCN(C)CC3)c(F)cc3c(=O)c(C(=O)O)cn1c23 (centres unmarked) [OFLOXACIN] | 5%
CC(C)(C)NC[C@H](O)COc1nsnc1N1CCOCC1 [TIMOLOL] | 22%
CCCCC1=NC2(CCCC2)C(=O)N1Cc1ccc(-c2ccccc2-c2nnn[nH]2)cc1 [IRBESARTAN] | 1%

Same assay, conditions: screening of NINDS set, sheet Screen 1; read-out: inhibition LmjIPCS

Compound | inhibition
CC(C(=O)O)c1ccc2c(c1)[nH]c1ccc(Cl)cc12 (centres unmarked) [CARPROFEN] | 7%

Same assay, conditions: single concentration 20mM as printed; screening of NINDS set, sheet Screen 1

Compound | 20mM inhibition LmjIPCS
Cc1cn([C@H]2C[C@H](N=[N+]=[N-])[C@@H](CO)O2)c(=O)[nH]c1=O [ZIDOVUDINE [AZT]] | 7%
CC(=O)Oc1ccc2c(c1)CC[C@@H]1[C@@H]2CC[C@]2(C)[C@@H](OC(C)=O)CC[C@@H]12 [ESTRADIOL DIACETATE] | 1.59%
NC(=O)NO [HYDROXYUREA] | 11%
